Data taken from US12226520B2, “Self-fueled particles for propulsion through flowing aqueous fluids” (The University of British Columbia, priority 2013, dated 2025).

Columns and labels:
[1] = system: platelet-poor blood plasma; assay: Clot initiation in a 25 mm column of non-flowing platelet-poor blood plasma; assay type: biochemical
Experimental: Thr-CaCO3 was mixed at a 1:1 mass ratio with TXA-NH3^+ to yield a propelling particle mixture. A non-propelling mixture consisted of a 1:1 ratio of Thr-CaCO3 with lyophilized TXA-NH2. The ability of the two mixtures to initiate clotting in platelet-poor blood plasma was measured and compared against addition of a similar amount of thrombin (approximately 1 pmol) in HEPES buffer and a control receiving no treatment.
The ability of particles to clot both at the site of application and below the site was assessed by injecting particles near the top of a column of plasma that was 25 mm tall. Initiation of clotting was measured both at the top and the bottom of the column by monitoring the formation of fibrin. The blood plasma was laced with green-fluorescent beads in order to monitor movement and formation of solid fibrin mesh and clot initiation. Clotting at the top was measured visually, and when the plasma became opaque or appeared gelled, clotting was confirmed by gentle manipulation with a micropipette.
Both propelling and non-propelling particles immediately clotted plasma at the top of the column, which was detected within 2 min. The same response occurred when a solution containing an equivalent amount of dissolved thrombin was added. However, there were much larger differences in the clot times at the bottom of the columns of plasma between these samples.
Clotting took about 30 min, as the clot needed to propagate down through the column by diffusion. Clotting at the bottom was faster using non-propelled particles, occurring in 3.7 min as compared to 10 min for the propelled particles. […] Most propelled particles reacted and produced gas at the top so only a fraction of the particles sank to the bottom yielding a slightly slower clot time compared to non-propelling particles. Although the propelled particles out-performed the thrombin solution in this assay, a particular advantage for the propelling particles would come from an ability to propel though flowing solutions.

flowing plasma = assay: Clotting and occlusion of plasma flowing through a glass capillary tube; assay type: biochemical
Experimental: To show propelling thrombin particles clotting flowing plasma, particles were applied to the bottom of plasma flowing through a glass capillary tube (FIG. 3D,E). A microfluidic system was used to control the flow of plasma, and monitor the flow to determine when clotting occluded flow in the capillary tube. At flow velocities between 0.006 and 3.4 mm/s, the background occlusion times in the system were approximately 30 min. […] At high flows, the clot was easily pushed out and the flow of plasma resumed. […] The particles propelled upwards, against flow, and accumulated high within the tubing. Clotting was seen to initiate at regions with the highest concentration of particles.

thrombin [thrombin solution]
acceleration of clot initiation at the bottom compared to the control ([1]; bottom of 25 mm column): no acceleration of clot initiation | clot time at the bottom of the column ([1]; bottom of 25 mm column, non-flowing plasma): about 30 min | clot time at the top of the column ([1]; site of application, non-flowing plasma): same response | flow velocity up to which occlusion occurred (flowing plasma): up to 0.06 mm/s | occlusion versus controls at 0.6 mm/s (flowing plasma; flow velocity 0.6 mm/s): no difference from controls
